In US20120308538A1, “PREVENTING SPOILAGE IN ALCOHOL FERMENTATIONS” (priority 2011, published 2012):
Bridges are numbered along the chain shown (N, C = ends). Where no end group is shown, it is not given here.

Assays:
Lb. brevis = assay: In situ antimicrobial activity of HBD-3 secreted from yeast strains under fermentation conditions; type: cell-based, Lactobacillus brevis; details: summary statement, spoilage bacteria
Protocol: Yeast strains were grown up from single colonies in 3 mL YEP-Maltose medium (YEPM) and expanded to 2 liters. 40% (w/v) wort was reconstituted in water from spray-dried malt (Belgium) supplemented with 1 mM Zinc and autoclaved. The wort was diluted to give 1.02-1.060 g/mL density (10-15° Plato), and aerated. The yeast harvested from the 2 liter YEPM medium was resuspended in the diluted wort to give a yeast concentration of 1−1.5×10^7 cells/mL in either 250 ml sterile glass cylinders or in 2 L cylindro-conical EBC vessels. Wort was aerated once with compressed air, bubbling from the bottom of the vessel and anaerobic conditions were maintained by overlying with mineral oil. Flasks were incubated at a 45° angle, and incubated at 11-13° C. The density of the solution was measured every other day for 14 days. Samples were also used for the measurement of HBD-3 in the medium. At the end of the brewing period, yeast were recovered and stored for re-pitching if required. To test the efficacy of the HBD-3-yeast to prevent beer spoilage, individual beer spoilage bacterial strains (10^3/mL) were introduced along with pitching yeast. The surviving bacteria were quantified every other day along with viable yeast cells in the brew. The physical and chemical characteristics of the brew as well as taste and palatability were also measured with the help of healthy volunteers. […]

lager yeast CBMS = assay: Cytotoxic effects of HBD-3 against the lager yeast; type: cell-based, Saccharomyces pastorianus; details: data not shown
Protocol: (§1) To test the activity of β-Defensin-3 against beer-spoiling bacteria, a defensin bioassay was carried out as described in the Methods section. Since our goal was to express HBD-3 in lager yeast, the cytotoxic effects of HBD-3 against the lager yeast CBMS was also examined. […] The minimum inhibitory concentration (MIC) values for HBD-3 against Lb. brevis and Lb. malefermentas were 5 μg/ml 0.5 μg/ml respectively. The LD-100 and MIC were lower than that required against other gram positive strains such as S. mutans, S. pyogenes, and […]. […] (data not shown).

beer spoilage bacteria = assay: Beer spoilage challenge in the bottled product (pilot scale 50 L fermentations); details: bottled product from CM-PGK-51 fermentation; no freeze-thawing cycle; larger than usual amounts of bacteria
Protocol: Pilot scale fermentations (50 L) were carried out using CM-PGK-51 as a starter culture.

Lactobacillus brevis = type: cell-based
Protocol: (§2) Cultures of Lactobacillus brevis L1055 or a control bacterium Staphylococcus aureus-were cultured at 37° C. overnight in MRS media (10 g litre^−1 universal peptone, 5 g litre^−1 meat extract, 5 g litre^−1 yeast extract, 20 g litre^−1 D(+)-glucose, 2 g litre^−1 K2HPO4, 2 g litre^−1 diammonium hydrogen citrate, 5 g litre NaOAc, 0.1 g litre^−1 MgSO4, 0.05 g litre^−1 MnSO4, final pH 6.5+/−0.2 at 37° C.). To prevent yeast growth in samples taken from fermentations seeded with L. brevis, the MRS medium was supplemented with cycloheximide at 10 μg/ml. The cultures were diluted to give a final densitiy of approximately 10^3 cells/mL. Synthetic HBD (0.5-10 μg/mL) was added to the bacterial cultures in a final volume of 100 μl volumes. CMBS cultures containing the pGREG, HBD-3-505V or HBD-3-506V were grown in overnight synthetic medium plus galactose (2%). The supernatants were concentrated (1000-fold) using molecular filtration membranes [Molecular Weight Cut Off (MWCO) 2000] ensuring all unspent sugar was removed from the medium. The concentrated supernatants were added to the bacterial cultures as described above. Following a two-hour incubation at 37° C., the number of bacterial colonies in each sample was determined following incubation on MRS plates containing cycloheximide at 37° C. for 48 hrs.
as §1

[1] = tested on: Lactobacillus malifermentus; type: cell-based
Protocol: as §2, §1

[2] = tested on: Lactobacillus brevis 1105; assay: HBD-3 activity in beer fermentations: brew samples seeded with bacteria incubated with HBD-3; type: cell-based; details: HBD-3 5 μg/mL; day 14 brew samples; seeded day 6 at 10^2 and 10^4 cfu/ml; two independent fermentations
[3] = synthetic HBD-3, two-hour incubation at 37° C.

In the case of “GIINTLQKYYCRVRGGRCAVLSCLPKEEQIGKCSTRGRKCCRRKK (disulfide 11-40, 18-33, 23-41 (inferred)) [HBD-3, human β-defensin-3]”, the “reduction of bacterial load after quick freezing of the brew” value (Lb. brevis) is reported as 90-95%, the “HBD-3 concentrations at which lager yeasts were resistant” value (lager yeast CBMS) is reported as “up to 100 μg/ml” and the “protective effects in beer spoilage challenge” value (beer spoilage bacteria) is reported as “did not reveal any protective effects”. For the same sequence, the “minimum inhibitory concentration (MIC)” value (Lactobacillus brevis; synthetic HBD-3) was 5 µg/mL, the “LD-100 (effectively killed at concentration)” value (Lactobacillus brevis; [3]) was 10 µg/mL and the “minimum inhibitory concentration (MIC)” value ([1]; synthetic HBD-3) was 0.5 µg/mL. For the same sequence, the “LD-100 (effectively killed at concentration)” value [1, 3] was 1 µg/mL and the “reduction of bacterial load in the wort” value [2] was 100 fold.
